Assay [1] concerns platelets (ADP-induced aggregation). The experiment in a line: Antithrombocyte aggregation test in vitro (ATA-8), ADP-induced, whole blood. The format is cell-based, human (Community Research Clinic volunteers). As to conditions: Homo sapiens, Platelet. The protocol: (§1) ANTITHROMBOCYTE AGGREGATION TEST-IN VITRO (ATA-8)
Blood is collected from Community Research Clinic volunteers who have not ingested aspirin or other non-steroidol antiinflammatory drugs within the preceeding two weeks and have not eaten within the nine hours before blood draw. Blood is taken in 4.5 ml portions in Vacutainer No. 6462S silicone-coated tubes or equivalent containing 0.5 ml of 3.8% trisodium citrate. Usually six or eight portions of 4.5 ml are drawn from each volunteer. […] The pooled blood is put in 50 ml polyethylene tubes and centrifuged at 80×g (ca 600 rpm) for 20 min in an International Model K centrifuge at room temperature. […]
Addition of drug solution or saline (0.02 ml) is followed in 5 min by addition of aggregating agent (ADP or collagen suspension, 0.02 ml). Extent of aggregation, using ADP stimulus, or rate of aggregation, using collagen stimulus, is determined using the Payton Scientific Dual Channel Aggregation Module, Model 300B. Appropriate concentrations of ADP or collagen are determined by an initial brief titration.
The height in millimeters of aggregation curves for control aggregations (no drug addition, saline only) are compared with the heights of curves obtained after drug addition at various appropriate concentrations. Heights after drug addition are finally expressed as "percent of control" values. […]

The subject of another assay is mouse locomotor activity. The experiment in a line: Mouse Activity and Screen Test Procedure (MAST): locomotor activity. The format is in vivo, Swiss-Webster male mice. As to conditions: mice, one hour. The source says: The compounds of the invention are new chemical substances which are useful as pharmaceutical agents for the treatment of psychoses. The antipsychotic activity of representative compounds of the invention was established by the Mouse Activity and Screen Test Procedure (MAST) described below.
Nine unfasted Swiss-Webster male mice weighing 20-30 g are equally divided into three groups for each drug dose to be tested. That is, data for each dose level was generated by three separate groups of three mice each.
A minimum of three dose levels (10, 30, and 100 mg/kg) are tested for each drug. Treatments are administered intraperitoneally one hour prior to testing. All dosages are calculated as parent compound and given in volumes of 10 ml/kg. Compounds are dissolved or suspended in 0.2% Methocel. Control animals are injected with Methocel.
A two part testing procedure is started one hour postinjection. First, the screen test (ST) is performed (see Pharmac. Biochem. Behav. 6, 351-353, 1977). Briefly this test consists of placing mice on individual wire screens which are then rotated 180 degrees at the start of a 60 second observation period. The number of mice falling off the inverted screen is recorded.
Immediately following the screen test, the final phase of testing is initiated by placing each group of three mice in one actophotometer (Life Sciences, 22, 1067-1076, 1978). The actophotometer consists of a cylindrical chamber whose center is occupied by another cylinder which contains the illumination for six photocells located on the perimeter of the chamber. Six light-beam interruptions equal one count. Locomotor activity is recorded by computer at ten minute intervals for 60 minutes.
The data obtained from the screen test are expressed as percent of mice falling off the screen. Data derived from locomotor activity of drug treated mice are compared to the activity of vehicle treated animals and are expressed as percent inhibition of spontaneous locomotion. All percentages reported for inhibition of locomotion (LI) are based upon data accumulated for one hour. Both phases of testing are graded: A=60-100%; C=31-59%; and N=0-30%. An overall dose rating is obtained by the following criteria:
LAD refers to the lowest dose at which an A rating is achieved. […] Utilizing this procedure, an overall dose rating of A was obtained for the noted compound at the indicated dose. The compounds are identified in the Examples.

Assay [2] deals with platelets (ADP-induced aggregation). The experiment in a line: Antithrombocyte aggregation test in vitro (ATA-8), ADP-induced, platelet rich plasma. Particulars: Homo sapiens. The format is cell-based, human (Community Research Clinic volunteers). The protocol:
as §1
Source and Preparation of Platelet Suspensions
Blood is collected from Community Research Clinic volunteers who have not ingested aspirin or other non-steroidol antiinflammatory drugs within the preceeding two weeks and have not eaten within the nine hours before blood draw. Blood is taken in 4.5 ml portions in Vacutainer No. 6462S silicone-coated tubes or equivalent containing 0.5 ml of 3.8% trisodium citrate. Usually six or eight portions of 4.5 ml are drawn from each volunteer. The blood collected from three or four volunteers is pooled prior to centrifugation. The pooled blood is put in 50 ml polyethylene tubes and centrifuged at 80×g (ca 600 rpm) for 20 min in an International Model K centrifuge at room temperature. […] The platelet count of the PRP is determined with a Coulter Thromobocounter. […]
Platelet-rich plasma adjusted to 250,000 platelets per microliter is distributed in 0.36 ml aliquots into silicone-coated cuvettes of 0.312 inch diameter. […] Extent of aggregation, using ADP stimulus, or rate of aggregation, using collagen stimulus, is determined using the Payton Scientific Dual Channel Aggregation Module, Model 300B. Appropriate concentrations of ADP or collagen are determined by an initial brief titration. […]

The values that follow come from patent US4738954A, “Novel N^6 -substituted-5'-oxidized adenosine analogs” (Warner-Lambert Company, priority 1985, dated 1988).

pIC50: −log10 of the molar value.

Take `CCNC(=O)[C@H]1O[C@@H](n2cnc3c(N[C@H](C)Cc4ccccc4)ncnc32)[C@H](O)[C@@H]1O` [Example 1, (R)-N-6-[(2-phenyl-1-methyl)ethyl]-adenosine-5'-ethylcarboxamide]: the pIC50 in assay [1] was 9.15; in assay [2], 6.22. Besides, the “Inhibition of mouse locomotor activity” value is given as -8% in the assay on mouse locomotor activity (0.01 mg/kg IP); 18% in the assay on mouse locomotor activity (0.03 mg/kg IP); 91% with mouse locomotor activity (0.1 mg/kg IP); 75% with mouse locomotor activity (0.3 mg/kg IP); 92% in the assay on mouse locomotor activity (1 mg/kg IP); 99% in the assay with mouse locomotor activity (3 mg/kg IP). Further, the “Inhibition of mouse locomotor activity” value in the assay with mouse locomotor activity (10 mg/kg IP) and with mouse locomotor activity (30 mg/kg IP) was 99% throughout.
On to `CCNC(=O)[C@H]1O[C@@H](n2cnc3c(NCC(c4ccccc4)c4ccccc4)ncnc32)[C@H](O)[C@@H]1O` [Example 3, N^6-(2,2-diphenylethyl)-adenosine-5'-ethylcarboxamide], for which the “Inhibition of mouse locomotor activity” value in the assay with mouse locomotor activity (0.1 mg/kg IP) amounted to 20%; with mouse locomotor activity (0.3 mg/kg IP), 1%; in the assay with mouse locomotor activity (1 mg/kg IP), 72%; in the assay on mouse locomotor activity (3 mg/kg IP), 92%; in the assay with mouse locomotor activity (10 mg/kg IP), 90%; with mouse locomotor activity (30 mg/kg IP), 93%.
For the molecule `CCOC(=O)[C@H]1O[C@@H](n2cnc3c(NCC(c4ccccc4)c4ccccc4)ncnc32)[C@H](O)[C@@H]1O` [Example 5, N6-(2,2-diphenylethyl)-5-adenosine-5'-ethylcarboxylate], the results for the “Inhibition of mouse locomotor activity” value in the assay with mouse locomotor activity (3 mg/kg IP), in the assay on mouse locomotor activity (10 mg/kg IP) and with mouse locomotor activity (30 mg/kg IP) were -4%, 0% and 2%, respectively.
On to `CCNC(=O)[C@H]1O[C@@H](n2cnc3c(NCc4cccc5ccccc45)ncnc32)[C@H](O)[C@@H]1O` [Example 6, N-6-Naphthylmethyladenosine-5'-ethylcarboxamide], for which the “Inhibition of mouse locomotor activity” value in the assay with mouse locomotor activity (0.03 mg/kg IP) was 21%; in the assay with mouse locomotor activity (0.1 mg/kg IP) it was 30%; in the assay with mouse locomotor activity (0.3 mg/kg IP), 82%; in the assay with mouse locomotor activity (1 mg/kg IP), 87%; in the assay with mouse locomotor activity (3 mg/kg IP), 88%; in the assay with mouse locomotor activity (10 mg/kg IP) it was 90%.
